Active and inactive are the calls of the source. The rule behind the calls is not given here.
Legend:
Platelet [1] = experiment: Inhibition of collagen-induced platelet aggregation in rabbit platelet at 25 uM relative to control; assay type: functional, Oryctolagus cuniculus; parameters: scale not given: the % may be the effect or the level left
Platelet [2] = experiment: Inhibition of arachidonic acid-induced platelet aggregation in rabbit platelet at 25 uM relative to control; assay type: functional, Oryctolagus cuniculus; parameters: scale not given: the % may be the effect or the level left
Platelet [3] = experiment: Inhibition of ADP-induced platelet aggregation in rabbit platelet at 25 uM relative to control; assay type: functional, Oryctolagus cuniculus; parameters: scale not given: the % may be the effect or the level left
Platelet [4] = experiment: Inhibition of PAF-induced platelet aggregation in rabbit platelet at 25 uM relative to control; assay type: functional, Oryctolagus cuniculus; parameters: scale not given: the % may be the effect or the level left
Platelet [5] = experiment: Inhibition of arachidonic acid-induced platelet aggregation in rabbit platelet at 50 uM relative to control; assay type: functional, cell-based; conditions: Oryctolagus cuniculus
Platelet [6] = experiment: Inhibition of collagen-induced platelet aggregation in rabbit platelet at 50 uM relative to control; assay type: functional, cell-based; conditions: Oryctolagus cuniculus
Platelet [7] = experiment: Inhibition of PAF-induced platelet aggregation in rabbit platelet at 50 uM relative to control; assay type: functional, cell-based; conditions: Oryctolagus cuniculus
Platelet [8] = experiment: Inhibition of ADP-induced platelet aggregation in rabbit platelet at 50 uM relative to control; assay type: functional, cell-based; conditions: Oryctolagus cuniculus
Platelet [9] = experiment: Inhibition of arachidonic acid-induced platelet aggregation in rabbit platelet at 100 uM relative to control; assay type: functional, Oryctolagus cuniculus; parameters: scale not given: the % may be the effect or the level left
Platelet [10] = experiment: Inhibition of PAF-induced platelet aggregation in rabbit platelet at 100 uM relative to control; assay type: functional, Oryctolagus cuniculus; parameters: scale not given: the % may be the effect or the level left
Platelet [11] = experiment: Inhibition of arachidonic acid-induced platelet aggregation in rabbit platelet at 20 uM relative to control; assay type: functional, cell-based; conditions: Oryctolagus cuniculus
Platelet [12] = experiment: Inhibition of ADP-induced platelet aggregation in rabbit platelet at 100 uM relative to control; assay type: functional, Oryctolagus cuniculus; parameters: scale not given: the % may be the effect or the level left
Platelet [13] = experiment: Inhibition of collagen-induced platelet aggregation in rabbit platelet at 100 uM relative to control; assay type: functional, Oryctolagus cuniculus; parameters: scale not given: the % may be the effect or the level left

CC(=O)Oc1ccccc1C(=O)O [ASPIRIN]
Activity (Platelet [1]): 87.8% | Activity (Platelet [2]): 0% | Activity (Platelet [3]): 77.9% | Activity (Platelet [4]): 90.5%

COC(=O)N1CCc2cc3c(c4c2[C@@H]1Cc1cc(O)c(OC)cc1-4)OCO3 [CATHAFILINE]
Activity (Platelet [5]): Active | Activity (Platelet [6]): Active | Activity (Platelet [7]): Active | Activity (Platelet [8]): Active | Activity (Platelet [9]): 0%

COc1cc2c(cc1O)C[C@H]1c3c(cc4c(c3-2)OCO4)CCN1C [CASSYTHICINE]
Activity (Platelet [10]): 68.1% | Activity (Platelet [11]): Active | Activity (Platelet [12]): 0% | Activity (Platelet [13]): 0% | Activity (Platelet [9]): 0%

COC(=O)N1CCc2c(OC)c3c(c4c2[C@@H]1Cc1cc(O)c(OC)cc1-4)OCO3 [CATHAFORMINE]
Activity (Platelet [10]): 61.5% | Activity (Platelet [5]): Active | Activity (Platelet [6]): Active | Activity (Platelet [7]): Active | Activity (Platelet [8]): Active | Activity (Platelet [13]): 7.6% | Activity (Platelet [9]): 0%

COc1cc2c(cc1OC)-c1c3c(c(OC)c4c1[C@H](C2)N(C)CC4)OCO3 [OCOTEINE]
Activity (Platelet [10]): 87.7% | Activity (Platelet [13]): 0% | Activity (Platelet [9]): 0%

COc1cc2c(cc1O)C[C@@H]1NCCc3cc4c(c-2c31)OCO4 [ACTINODAPHNINE]
Activity (Platelet [10]): 0% | Activity (Platelet [5]): Active | Activity (Platelet [6]): Active | Activity (Platelet [7]): Active | Activity (Platelet [12]): 0% | Activity (Platelet [8]): Active | Activity (Platelet [13]): 0% | Activity (Platelet [9]): 0%

COc1cc2c(cc1OC)-c1c(OC)c(O)cc3c1[C@H](C2)N(C)CC3 [PREDICENTRINE]
Activity (Platelet [10]): 74% | Activity (Platelet [13]): 0% | Activity (Platelet [9]): 0%
